Measured values reported in patent US20240093034A1, “FLUORESCENT DYES” (EXOPHARM LIMITED, priority 2020, published 2024).

What was measured:
platelet-derived EVs = experiment: Labelling of extracellular vesicles with dyes (Superose 6 HPLC, UV and FLD detection); settings: EV + 2 μM dye; for FLD area (EV + dye): 1 hr 37° C., void peak area, 562 nm/583 nm (Ex/Em); for Area FLD/Area UV (EV + dye): higher ratio = greater incorporation
Method: Labelling of extracellular vesicles (EVs) with dyes 1-10 was performed according to the following procedure. 20 μL of platelet-derived EVs were incubated in HPLC vials with or without each dye at a final concentration of 2 μM dye, the dye stock solution being made up in water. For negative controls, an equivalent volume of the diluent solution was added to the EV solution. The sample was mixed gently. Each sample was subsequently incubated for 1 hr at 37° C. Samples were transferred and stored in the autosampler set at 4° C. A batch table was setup that injected unlabelled EVs prior to labelled EVs. A blank injection was run after each labelled EV experiment to ensure there was no carryover. 15 μL of each sample was injected onto a Superose 6 Increase column (3.2/300) from Cytiva. The flow rate was set at 0.15 mL min* The Shimadzu BioHPLC was run in isocratic mode with Buffer A: 1× PBS (phosphate-buffered saline), pH 7.4, 100 nm filtered. The column oven temperature was set at 30° C. Total run duration was 30 min. Data was collected using two detectors. The PDA (UV detector) was set to scan from 190-800 nm and a channel of the FLD (fluorescence detector) was set at 562 nm/583 nm (Ex/Em). Titration experiments were conducted to confirm that excess dye was removed. The areas of the void peaks from the 214 nm absorption and the 583 nm emission were calculated by the LabSolutions software using the manual integration function. To normalise the fluorescent signal, the total fluorescent area was divided by the UV 214 nm area. This ratio can be used to rank each dye, with higher ratios indicative of greater incorporation.

[1] = test system: normal human dermal fibroblasts (NHDF); experiment: Labelling of human cells with dyes (plate fluorescence); type: cell-based; settings: 2 μM dye, 1 hr 37° C., washed with HBSS; higher = more incorporation
Method: Labelling of human cells with dyes 1-10 was performed according to the following procedure. Each well of a Costar 96 well flat bottom plate was seeded with 5,000 normal human dermal fibroblasts (NHDF; not older than P9) and allowed to attach overnight in full media: fibroblast growth media (Lonza)+2% v/v fetal calf serum. Each dye was diluted 1:50 from a stock of 1 mM with 10 mM L-histidine, 150 mM NaCl, pH 6.0, to a final concentration of 20 μM. The dye was subsequently added to full media at a further 1:10 dilution to a final concentration of 2 μM. The media on the cells was subsequently replaced with the freshly prepared full media containing the dye. For negative controls, an equivalent volume of the diluent solution was added to the cell solution. Cells were incubated for 1 hr at 37° C. and then washed with 1 xHBSS (Hank's balanced salt solution) to remove free dye. Plate was imaged using the CLARIOStar spectrophotometer (5x5 matrix mode, average of 25 data points, 3 wells for each dye). A higher fluorescence indicates a higher amount of incorporation into the cells.

NHDF cells = experiment: Labelling of NHDF cells with dyes alone and with EVs (Plexaris) labelled with dyes; type: cell-based, human; settings: for incorporation into NHDFs, Plexaris (PLX)+dye (FIG. 6): Example 9, 0.2 μM dye, 1 hr 37° C.; for extent of incorporation into cells versus dye 2 alone (FIG. 4(a)) / extent of incorporation into cells versus PLX+dye 2 (FIG. 4(b)): 0.2 μM; for extent of incorporation into cells versus dye 2 alone (FIG. 4(a)): normalised to dye 2; for extent of incorporation into cells versus PLX+dye 2 (FIG. 4(b)): dye with PLX, normalised to Plexaris+dye 2
Method: (§1) Labelling of NHDF cells with dyes 11-18 alone and EVs labelled with dyes 11-18 was performed according to the following procedure. Each well of a Costar 96 well flat bottom plate was seeded with 5,000 normal human dermal fibroblasts (NHDF; not older than P9) and allowed to attach overnight in full media: fibroblast growth media (Lonza)+2% v/v fetal calf serum. Each dye was diluted in water to a final concentration of 1 mM. The dyes were then diluted to a final concentration of 2 μM in either a base formulation (1× PBS) or a sample of Plexaris (purified EVs derived from platelets) in 1× PBS and incubated at 1 hr at 37° C. The dyes were subsequently added onto the NHDFs at a further 1:10 dilution to a final concentration of 0.2 μM. Cells were incubated for 1 hr at 37° C. and then washed with 1× HBSS (Hank's balanced salt solution) to remove free dye. Plate was imaged using the CLARIOStar spectrophotometer (5×5 matrix mode, average of 25 data points, 3 wells for each dye). The data was normalised against either dye 2 or Plexaris+dye 2. A higher fluorescence indicates a higher amount of incorporation into the cells.
as §1, with “with” for “with dyes 11-18 alone and”, “4, 6, 17, 18, 23, 24 and 25” for “11-18”, “phosphate buffered saline (PBS)” for “water”, “in” for “in either a base formulation (1× PBS) or a sample of”, “in” for “in 1×”, “against” for “against either dye 2 or”

SMILES | FLD area (EV + dye) (platelet-derived EVs) | Area FLD/Area UV (EV + dye) (platelet-derived EVs) | FLD [1] | incorporation into NHDFs, Plexaris (PLX)+dye (FIG. 6) (NHDF cells) | extent of incorporation into cells versus dye 2 alone (FIG. 4(a)) (NHDF cells) | extent of incorporation into cells versus PLX+dye 2 (FIG. 4(b)) (NHDF cells)
CCCCCCCCCCCCCCCCCCCCN(CCOC)C(=O)c1ccccc1-c1c2ccc(=[N+](CC)CC)cc-2oc2cc(N(CC)CC)ccc12.[Cl-] [Dye 10, Rhodamine B N-ethyl methyl ether icosaneamide] | 2826617 | 2.55 | 45943 |  |  | 
CCCCCCCC/C=C\CCCCCCCCN(C)C(=O)c1ccccc1-c1c2cc/c(=[N+](/CC)CC(F)(F)F)cc-2oc2cc(N(CC)CC(F)(F)F)ccc12.[Cl-] [Dye 25, hexafluoro rhodamine B N-methyloleylamide] |  |  |  | found to incorporate into NHDFs |  | 
CCCCCCCC/C=C/CCCCCCCCN(C)C(=O)c1ccccc1-c1c2ccc(=[N+](CC)CC)cc-2oc2cc(N(CC)CC)ccc12 [Dye 18, Rhodamine B N-methylelaidylamide] |  |  |  | found to incorporate into NHDFs | incorporated to the cells to a larger extent | incorporated to the cells to a larger extent
CCCCCCCCCCCCCCCCN(C)C(=O)c1ccccc1-c1c2ccc(=[N+](CC)CC)cc-2oc2cc(N(CC)CC)ccc12.[Cl-] [Dye 1, Rhodamine B N-methylhexadecylamide] | 2281007 | 2.09 | 120641 |  |  | 
CCCCCCCCCCCCCCCCCCN(CC)C(=O)c1ccccc1-c1c2ccc(=[N+](CC)CC)cc-2oc2cc(N(CC)CC)ccc12.[Cl-] [Dye 15, Rhodamine B N-ethyloctadecylamide] |  |  |  |  | incorporated to the cells to a larger extent | incorporated to the cells to a larger extent
CCCCCCCCCCCCCCCCCCCN(C)C(=O)c1ccccc1-c1c2ccc(=[N+](CC)CC)cc-2oc2cc(N(CC)CC)ccc12.[Cl-] [Dye 12, Rhodamine B N-methylnonadecylamide] |  |  |  |  | incorporated to the cells to a larger extent | incorporated to the cells to a larger extent
CCCCCCCCCCCCCCCCCCN(CCO)C(=O)c1ccccc1-c1c2ccc(=[N+](CC)CC)cc-2oc2cc(N(CC)CC)ccc12.[Cl-] [Dye 9, Rhodamine B N-(2-hydroxyethyl)octadecanamide] | 4558422 | 3.33 | 83536 |  |  | 
CCCCCCCCCCCCCCCCCCN(C)C(=O)c1ccccc1-c1c2cc/c(=[N+](/CC)CC(F)(F)F)cc-2oc2cc(N(CC)CC(F)(F)F)ccc12.[Cl-] [Dye 23, hexafluoro Rhodamine B N-methyloctadecylamide] |  |  |  | found to incorporate into NHDFs |  | 
CCCCCCCCCCCCCCN(CCCCC)C(=O)c1ccccc1-c1c2ccc(=[N+](CC)CC)cc-2oc2cc(N(CC)CC)ccc12.[Cl-] [Dye 5, Rhodamine B N-pentyltetradecanamide] | 2405326 | 1.25 | 106332 |  |  | 
CCCCCCCCCCCCCCCCN(CCOC)C(=O)c1ccccc1-c1c2ccc(=[N+](CC)CC)cc-2oc2cc(N(CC)CC)ccc12.[Cl-] [Dye 7, Rhodamine B N-ethyl methyl ether hexadecanamide] | 1456410 | 1.38 | 97347 |  |  | 
CCCCCCCCCCCCCCCCCCCCCCN(C)C(=O)c1ccccc1-c1c2ccc(=[N+](CC)CC)cc-2oc2cc(N(CC)CC)ccc12.[Cl-] [Dye 4] | 1901680 | 2.08 | 18027 | found to incorporate into NHDFs |  | 
CCCCCCCC/C=C\CCCCCCCCN(C)C(=O)c1ccccc1-c1c2ccc(=[N+](CC)CC)cc-2oc2cc(N(CC)CC)ccc12 [Dye 17, Rhodamine B N-methyloleylamide] |  |  |  | found to incorporate into NHDFs | incorporated to the cells to a larger extent | incorporated to the cells to a larger extent
CCCCCCCC/C=C/CCCCCCCCN(C)C(=O)c1ccccc1-c1c2cc/c(=[N+](/CC)CC(F)(F)F)cc-2oc2cc(N(CC)CC(F)(F)F)ccc12.[Cl-] [Dye 24] |  |  |  | found to incorporate into NHDFs |  | 
CCCCCCCCCCCCCCCCCCN(CCOC)C(=O)c1ccccc1-c1c2ccc(=[N+](CC)CC)cc-2oc2cc(N(CC)CC)ccc12.[Cl-] [Dye 8, Rhodamine B N-ethyl methyl ether octadecanamide] | 3422473 | 2.92 | 83404 |  |  | 
CCCCCCCCCCCCCCCCCCN(CCCCC)C(=O)c1ccccc1-c1c2ccc(=[N+](CC)CC)cc-2oc2cc(N(CC)CC)ccc12.[Cl-] [Dye 6, Rhodamine B N-pentyloctadecanamide] | 4247970 | 2.36 | 20270 | found to incorporate into NHDFs |  | 
CCCCCCCCCCCCCCCCCCCCN(C)C(=O)c1ccccc1-c1c2ccc(=[N+](CC)CC)cc-2oc2cc(N(CC)CC)ccc12.[Cl-] [Dye 3, Rhodamine B N-methylicosaneamide] | 4270562 | 3.63 | 43073 |  |  | 
CCCCCCCCCCCCCCCCCCN(CCC)C(=O)c1ccccc1-c1c2ccc(=[N+](CC)CC)cc-2oc2cc(N(CC)CC)ccc12.[Cl-] [Dye 14, Rhodamine B N-propyloctadecylamide] |  |  |  |  | incorporated to the cells to a larger extent | incorporated to the cells to a larger extent
